The values that follow come from US20140273139A1, “Direct Fermentation of Biomass to Fuel Precursors” (Innovative Metabolism Inc., priority 2013, published 2014).

The test system of experiment [1] is P. chrysosporium. Briefly: Submerged liquid fermentation under reduced oxygen with the mitochondrial inhibitor rotenone (GC-MS, standard curves). Type of experiment: cell-based, Phanerochaete chrysosporium. The protocol: In this experiment P. chrysosporium was grown from conidiospores in submerged liquid culture. The growth medium was Highley's Basal salts [Wymelenberg, A. V., et al., The Phanerochaete chrysosporium secretome: database predictions and initial mass spectrometry peptide identifications in cellulose-grown medium. J Biotechnol, 2005. 118(1): p. 17-34.] supplemented with 0.1% yeast extract (YE) and 2% glucose. Conidiospores were inoculated in 50 ml of liquid medium in a 250 ml Erlenmyer flask which was then capped with a 3-piece fermentation lock to prevent evaporation of volatile products and to allow the culture to incubate in a reduced oxygen environment. The culture was incubated statically.
A large mass of fungus was produced and remained suspended near the top of the medium. Samples were collected, transferred to glass septum vials and heated to 60° C. Samples were analyzed on a 6890N GC system with a 5975 Mass Selective Detector (Agilent) using a PH Innowax column. […] Standard curves were performed for each solvent. The concentrations in the fermentation broth were determined to be 0.74 mM for acetone, 1.8 mM for isopropanol, and 1.9 mM for ethanol. This experiment provided the first indication that P. chrysosporium was capable of fermenting sugars to acetone and isopropanol.

Experiment [2] concerns P. chrysosporium. The experiment is described as follows: Submerged liquid fermentation in the presence of air and gaseous mitochondrial inhibitor (GC-MS of headspace). Type of experiment: cell-based, Phanerochaete chrysosporium. The conditions noted are these: aerobic culture, NO target concentration 1 μM, 2% glucose, 37° C. The protocol:
In this experiment P. chrysosporium was grown from conidiospores in submerged liquid culture. The growth medium was Highley's Basal salts [Wymelenberg, A. V., et al., The Phanerochaete chrysosporium secretome: database predictions and initial mass spectrometry peptide identifications in cellulose-grown medium. J Biotechnol, 2005. 118(1): p. 17-34.] supplemented with 0.1% yeast extract (YE) and 2% glucose. Conidiospores were inoculated in liquid medium in 3 neck flasks. The temperature was maintained at 37° C. The cultures were mixed using magnetic stir bars and gasses (air, nitrogen, and air supplemented with nitric oxide (NO)) were bubbled through the medium using stainless steel needles. Fungi were grown: 1) aerobically; 2) anaerobically; and 3) aerobically with NO delivered to a target concentration of 1 μM. Cultures were sampled daily and analyzed using GC-MS (FIG. 3). P. chrysosporium grew rapidly forming large, encapsulated masses of material.
The identity of the ethanol peak was confirmed by MS analysis. Samples were transferred to glass septum vials and heated to 60° C. A gas-tight syringe was used to sample 50 μl from the headspace. Samples were analyzed on a 6890N GC system with a 5975 Mass Selective Detector (Agilent) using a PH Innowax column.

In experiment [3] the test system is P. chrysosporium and K. marxianus. Briefly: Solid-state fermentation of corn stover by consortium in the presence of carbon monoxide. Type of experiment: cell-based, Phanerochaete chrysosporium / Kluyveromyces marxianus. The conditions noted are these: 90% CO and 10% air, first 27 days. The protocol: In this example, solvent-producing fermentation was initiated by introduction of a mix of air and CO, a competitive inhibitor of cytochrome c oxidase. Corn stover was prepared as described in Example 7. A mixture of P. chrysosporium conidiospores and mycelia harvested from agar medium, and 1 ml of K. marxianus from an overnight culture in YPD broth were added to the stover. The mixture was transferred to the rotating drum of the solid-state bioreactor under sterile conditions. The bioreactor was sealed and placed in a 44° C. incubator.
Growth was established under aerobic conditions (10 ml/min of air was flowed through the bioreactor for 17 hours). Fermentation was initiated by flowing a mixture comprised of 90% CO and 10% air through the bioreactor. During the first 27 days productivity peaked at 2.3×10^−5 g solvent/hr/g biomass remaining and yield for the period was 5.7% of biomass consumed (FIG. 8).

Experiment [4] has as its system P. chrysosporium. Briefly: Solid-state fermentation of corn stover by P. chrysosporium in the presence of carbon monoxide. Type of experiment: cell-based, Phanerochaete chrysosporium. The conditions noted are these: 10% air and 90% CO, through Day 44. As to the method:
In this example solvent fermentation was initiated by introduction of a mix of 10% air and 90% CO. Corn stover was prepared as described in Example 7. P. chrysosporium conidiospores and mycelia harvested from agar medium were added to the stover and the mixture was transferred to the rotating drum of the solid-state bioreactor under sterile conditions. The bioreactor was sealed and placed in a 44° C. incubator. The volume of gas flow remained constant at 10 ml/min for the entire experiment.
The fermentor was run aerobically for 45 hours to establish growth. Between hour 45 and Day 44 a gas mix comprised of 10% air and 90% CO was flowed through the system. Fungal metabolic activity was restored by flowing air through the system from Day 51-55. From Day 57-65 the fermentation was run anaerobically in the absence of CO. Fungal metabolic activity was again restored by aerobic growth from Day 65-68, and then anaerobic fermentation was continued from Day 68-82.

The mark [5] stands for this setting: rotenone-treated, reduced oxygen, static culture.

As for `C=C(C)[C@H]1Cc2c(ccc3c2O[C@@H]2COc4cc(OC)c(OC)cc4[C@@H]2C3=O)O1` [Rotenone, rotenone], the “solvents produced in the presence of the inhibitor” value in the experiment with P. chrysosporium [1] (liquid culture, oxygen-limited conditions, glucose) is “production of acetone, isopropanol and ethanol”. In the experiment on P. chrysosporium [1] (setting [5]), the “acetone concentration in the fermentation broth” value is given as 0.74 mM, the “ethanol concentration in the fermentation broth” value came out at 1.9 mM and the “isopropanol concentration in the fermentation broth” value came to 1.8 mM.
With nitric oxide, in the experiment on P. chrysosporium [2], the “ethanol production by the culture” value is “appeared to enable ethanol production in the presence of dissolved oxygen”.
For `[C-]#[O+]` [CO, carbon monoxide], in experiment [3], the solvents produced entry is listed as “Ethanol was the only solvent produced in significant quantities”. In experiment [3] (44° C.), the peak productivity is given as 2.3×10^−5 g solvent/hr/g biomass remaining and the solvent yield is given as 5.7 % of biomass consumed. In the experiment on P. chrysosporium [4], the “acetone share of solvent mix” value is listed as 28%, the “ethanol share of solvent mix” value was determined as 72% and the “isopropanol share of solvent mix” value is recorded as “only trace amounts”.
